Assay: clinical
Parameters: species or system Japanese patients
Conditions: in vivo
Protocol: Patients who provided at least one evaluable pharmacokinetic sample were eligible for pharmacokinetic analyses.
Plasma concentrations of regorafenib and its metabolites were determined by fully validated liquid chromatography–tandem mass spectrometry after protein precipitation with acetonitrile/ammonium acetate buffer containing the internal standards [^2H3 ^15N] BAY 73-4506 (for regorafenib), [^2H3 ^15N] […] BAY 81-8752 (for the M5 metabolite).

AUC from 0 to 24 h of metabolite as share of regorafenib (human): 47.3% | t 1/2 (terminal half life) (human): 29.5 (24.1) h | t max (human): 4.3 (0.6–47.9) h | AUC (human, po, 160 mg): 7,820.6 (301.2) μg.h/L | AUC0–24 (human, po, 160 mg): 3,697.2 (340.5) μg.h/L | C max (human, po, 160 mg): 273.3 (388.9) μg/L | t 1/2 (terminal half life) (human, po, 160 mg): 24.8 (27.7) h | Change in t max and t 1/2 between single dosing and 21-day multiple dosing: no significant change
SMILES: CNC(=O)c1cc(Oc2ccc(NC(=O)Nc3ccc(Cl)c(C(F)(F)F)c3)c(F)c2)cc[n+]1[O-] [M2]
